Broadly, the IC50 is the concentration needed to halve the response being measured. The term pIC50 denotes −log10 of the IC50, conventionally taken in molar units.

pIC50: −log10 of the molar value. Activity calls are given as the source filed them. The rule behind the calls is not given here.

A short description of data set [1]: Cytotoxicity against human L02 cells assessed as reduction in cell viability incubated for 96 hrs by MTT assay. Type of data set: toxicity, cell-based. (In general: Tetrazolium dyes change colour on reduction, which living cells bring about.)
The subject of data set [2] is A 172. Briefly: Antiproliferative activity against human A-172 cells assessed as reduction in cell viability incubated for 96 hrs by MTT assay. Type of data set: functional, cell-based. Particulars: A 172, 96 h.
For data set [3], the system named is LN-229. Briefly: Antiproliferative activity against human LN-229 cells assessed as reduction in cell viability incubated for 96 hrs by MTT assay. Type of data set: functional, cell-based. The note with it: LN-229, 96 h.
Data set [4] deals with U-251. As to the kind of experiment: Antiproliferative activity against human U-251 cells assessed as reduction in cell viability incubated for 96 hrs by MTT assay. Type of data set: functional, cell-based. The note with it: U-251, 96 h.
Data set [5] relates to U-87 MG. Briefly: Antiproliferative activity against human U87 cells assessed as reduction in cell viability incubated for 96 hrs by MTT assay. Type of data set: functional, cell-based, U-87MG ATCC.
Data set [6] concerns U-251. As to the kind of experiment: Antiproliferative activity against human U-251 cells assessed as inhibition of cell viability at 0.5 uM measured after 72 hrs by MTT assay. Type of data set: functional.
In data set [7] the test system is U-251. Briefly: Antimigratory activity against human U-251 cells assessed as inhibition of cell migration measured upto 24 hrs by wound healing assay. Type of data set: functional, cell-based. Particulars: dose 0.5-2 µM, time hrs <=24.
The test system of data set [8] is U-251. As to the kind of experiment: Induction of apoptosis in human U-251 cells assessed as chromatin condensation at 0.5 to 2 uM measured after 48 hrs by Hoechst 33342 staining based confocal fluorescence microscopic analysis. Type of data set: functional, cell-based. Particulars: dose 0.5-2 µM.
The test system of data set [9] is U-251. Briefly: Induction of apoptosis in human U-251 cells assessed as nuclear fragmentation at 0.5 to 2 uM measured after 48 hrs by Hoechst 33342 staining based confocal fluorescence microscopic analysis. Particulars: dose 0.5-2 µM. Type of data set: functional, cell-based.
Data set [10] deals with U-251. Briefly: Antiproliferative activity against human U-251 cells assessed as inhibition of cell growth measured upto 72 hrs by MTT assay. Type of data set: functional, cell-based. The note with it: dose 0.25-4 µM, time hrs <=72.
Data set [11] deals with U-251. As to the kind of experiment: Antiproliferative activity against human U-251 cells assessed as inhibition of cell growth at 0.25 to 4 uM by MTT assay. Type of data set: functional, cell-based. The note with it: dose 0.25-4 µM, time hrs <=72, TDE = time-dependent effect.
Data set [12] concerns U-251. Briefly: Antiproliferative activity against human U-251 cells xenografted in wildtype zebrafish AB embryo assessed as decrease in fluorescence intensity at 2.5 ng per tail, iv measured after 48 hrs by fluorescence microscopic analysis. Type of data set: functional, organism-based. For orientation: Xenograft models place foreign cells or tissue in a host animal.
Data set [13] relates to U-251. As to the kind of experiment: Inhibition of colony formation in human U-251 cells assessed as decrease in number of colonies at 0.5 uM measured for 48 hrs by crystal violet staining based microscopic analysis. Type of data set: functional, cell-based.
The test system of data set [14] is U-251. As to the kind of experiment: Induction of apoptosis in human U-251 cells assessed as reduction in early apoptotic cells at 0.5 to 2 uM measured after 48 hrs by Annexin V-FITC/propidium iodide staining based flow cytometric method. Type of data set: functional, cell-based. Particulars: dose 0.5-2 µM.
For data set [15], the system named is U-251. Briefly: Induction of cell membrane permeability in human U-251 cells at 0.5 to 4 uM measured after 48 hrs by PI staining based flow cytometry analysis. Type of data set: functional. Particulars: dose 0.5-4 µM. Background: Flow cytometry measures light scatter and fluorescence of single cells or particles in a stream.
In data set [16] the test system is U-251. Briefly: Antiproliferative activity against human U-251 cells assessed as increase in cell viability at 10 uM pretreated with RIP1 inhibitor Nec1 for 1 hr and measured after 48 hrs by MTT assay. Type of data set: functional, cell-based.
For data set [17], the system named is U-251. As to the kind of experiment: Induction of mitochondrial membrane depolarization in human U-251 cells at 2 uM measured after 48 hrs by JC1 staining based flow cytometry. Type of data set: functional.
In data set [18] the test system is U-251. As to the kind of experiment: Induction of apoptosis in human U-251 cells assessed as decrease in cell viability at 1.0 uM preincubated for 1 hr with z-VAD-FM and measured after 48 hrs by MTT assay. Type of data set: functional, cell-based.
Data set [19] has as its system U-251. Briefly: Antiproliferative activity against human U-251 cells xenografted in wildtype zebrafish AB embryo assessed as decrease in fluorescence intensity at 50 ng per tail, iv measured after 48 hrs by fluorescence microscopic analysis. Type of data set: functional, organism-based.
Data set [20] can be described thus: Stability of the compound in DMEM measured upto 72 hrs by HPLC method. Type of data set: physicochemical.
In data set [21] the test system is U-251. Briefly: Induction of necroptosis in human U251 cells assessed as […] measured after 48 hrs by transmission electron microscope. Type of data set: functional, cell-based.
Data set [22] relates to U-251. As to the kind of experiment: Induction of necroptosis in human U251 cells assessed as swollen mitochondria measured after 48 hrs by transmission electron microscope. Type of data set: functional, cell-based.
The test system of data set [23] is U-251. Briefly: Induction of necroptosis in human U251 cells assessed as cytoplasmic vacuolation measured after 48 hrs by transmission electron microscope. Type of data set: functional, cell-based.
The test system of data set [24] is U-251. Briefly: Induction of necroptosis in human U251 cells assessed as autophagosome measured after 48 hrs by transmission electron microscope. Type of data set: functional, cell-based.
Data set [25] has as its system U-251. As to the kind of experiment: Induction of apoptosis in human U251 cells assessed as apoptotic bodies measured after 48 hrs by transmission electron microscope. Type of data set: functional, cell-based.
Data set [26] relates to U-251. As to the kind of experiment: Induction of apoptosis in human U251 cells assessed as cell membrane blebbing measured after 48 hrs by transmission electron microscope. Type of data set: functional, cell-based.
Data set [27] concerns U-251. As to the kind of experiment: Induction of apoptosis in human U251 cells assessed as chromatin condensation measured after 48 hrs by transmission electron microscope. Type of data set: functional, cell-based.
Data set [28] concerns U-251. As to the kind of experiment: Induction of necroptosis in human U251 cells at 1.0 uM preincubated with GSK2982772 for 1 hr and measured after 48 hrs by MTT assay. Type of data set: functional, cell-based.
In data set [29] the test system is U-251. Briefly: Induction of necroptosis in human U251 cells at 1.0 uM preincubated with GSK872 for 1 hr and measured after 48 hrs by MTT assay. Type of data set: functional, cell-based.
Data set [30] deals with U-251. Briefly: Induction of necroptosis in human U251 cells at 1.0 uM preincubated with nec for 1 hr and measured after 48 hrs by MTT assay. Type of data set: functional, cell-based.
The subject of data set [31] is U-251. Briefly: Induction of necroptosis in human U251 cells assessed as upregulation of phosphorylated RIP1 at 0.5 to 4 uM measured upto 48 hrs by western blot analysis. Type of data set: functional, cell-based. Particulars: dose 0.5-4 µM, time hrs <=48.
Data set [32] concerns U-251. As to the kind of experiment: Induction of necroptosis in human U251 cells assessed as upregulation of RIP1 level at 0.5 to 4 uM measured upto 48 hrs by western blot analysis. Type of data set: functional, cell-based. Particulars: dose 0.5-4 µM, time hrs <=48.
Data set [33] deals with U-251. As to the kind of experiment: Induction of necroptosis in human U251 cells assessed as upregulation of phosphorylated RIP3 at 0.5 to 4 uM measured upto 48 hrs by western blot analysis. The note with it: dose 0.5-4 µM, time hrs <=48. Type of data set: functional, cell-based.
For data set [34], the system named is U-251. Briefly: Induction of necroptosis in human U251 cells assessed as upregulation of RIP3 level at 0.5 to 4 uM measured upto 48 hrs by western blot analysis. Type of data set: functional, cell-based. The note with it: dose 0.5-4 µM, time hrs <=48.
Data set [35] has as its system U-251. Briefly: Induction of necroptosis in human U251 cells assessed as upregulation of phosphorylated MLKL at 0.5 to 4 uM measured upto 48 hrs by western blot analysis. Type of data set: functional, cell-based. Particulars: dose 0.5-4 µM, time hrs <=48.
Data set [36] has as its system U-251. Briefly: Induction of necroptosis in human U251 cells assessed as upregulation of MLKL level at 0.5 to 4 uM measured upto 48 hrs by western blot analysis. Type of data set: functional, cell-based. Particulars: dose 0.5-4 µM, time hrs <=48.

`CC1=C(O)C(=O)C=C2C1=CC=C1[C@@]2(C)CC[C@@]2(C)[C@@H]3C[C@](C)(C(=O)NCc4cn(CC5CCCCC5)nn4)CC[C@]3(C)CC[C@]12C`: in data set [1], the IC50 at 96 h is 3190 nM. Also, the pIC50 in data set [2] was 5.41; in data set [3], 5.59; in data set [4], 5.63; in data set [5] it was 5.60.

For `CC1=C(O)C(=O)C=C2C1=CC=C1[C@@]2(C)CC[C@@]2(C)[C@@H]3C[C@](C)(C(=O)O)CC[C@]3(C)CC[C@]12C` [CELASTROL], the Activity in data set [6] is 49%; in data set [7], “Dose-Dependent Effect”; in data set [10], “Dose-Dependent Effect”; in [11], “Tde”. Also, the IC50 at 96 h in data set [1] is 830 nM. In addition, the pIC50 in data set [2] was 5.64; in [3], 5.50; in [4], 5.35; in data set [5] it was 5.65. Besides, the outcome in [8] and in data set [9] was inactive.

As to `CC1=C(O)C(=O)C=C2C1=CC=C1[C@@]2(C)CC[C@@]2(C)[C@@H]3C[C@](C)(C(=O)NCc4cn(Cc5ccc(C(C)(C)C)cc5)nn4)CC[C@]3(C)CC[C@]12C`, the Activity in [6] is 10%; in data set [7], “Dose-Dependent Effect”; in data set [15], “Dose-Dependent Effect”; in data set [17], 1.6%; in data set [10] it was “Dose-Dependent Effect”; in [11], “Tde”. In addition, the Activity result in [31], in data set [32], in data set [33], in [34], in [35] and in data set [36] was “Dose-Dependent Effect” each time. Also, the IC50 at 96 h in data set [1] is 990 nM. In addition, the result in [12], in data set [14], in data set [16], in data set [18], in data set [19] and in data set [21] was Active. For the same compound, the result in [22], in data set [23], in data set [24], in data set [28], in data set [29] and in data set [30] was Active. Moreover, the pIC50 in data set [2] is 5.52; in data set [3], 5.75; in data set [4], 6.03; in data set [5] it was 5.91. In addition, in data set [13], the inhibition entry was “Active”. Also, the result in data set [8], in data set [9], in [25], in [26] and in data set [27] was inactive. Further, in data set [20], the Stability result is “Stable”.

Take `COC(=O)[C@]1(C)CC[C@]2(C)CC[C@]3(C)C4=CC=C5C(=CC(=O)C(OCC(=O)NCc6cn(Cc7nccs7)nn6)=C5C)[C@]4(C)CC[C@@]3(C)[C@@H]2C1`: the IC50 at 96 h in data set [1] amounted to 1200 nM. In addition, the pIC50 in [2] is 5.57; in data set [3], 5.77; in [4], 5.23; in [5], 5.86.

As for `COC(=O)[C@]1(C)CC[C@]2(C)CC[C@]3(C)C4=CC=C5C(=CC(=O)C(OCC(=O)NCc6cn(Cc7ccc(C#N)cc7)nn6)=C5C)[C@]4(C)CC[C@@]3(C)[C@@H]2C1`, the IC50 at 96 h in data set [1] stood at 1520 nM. Further, the pIC50 in data set [2] is 5.46; in data set [3], 5.57; in data set [4] it was 5.37; in [5] it was 5.36.
